Drawing on patent US11998539B2, “Substituted aminoquinolones as DGKalpha inhibitors for immune activation” (Bayer Aktiengesellschaft, priority 2019, dated 2024), this text covers IC50 for 31 compounds.

pIC50: −log10 of the molar value.

Sequence of DGKα (P23743 other isoform, or with tags, fused parts or gaps): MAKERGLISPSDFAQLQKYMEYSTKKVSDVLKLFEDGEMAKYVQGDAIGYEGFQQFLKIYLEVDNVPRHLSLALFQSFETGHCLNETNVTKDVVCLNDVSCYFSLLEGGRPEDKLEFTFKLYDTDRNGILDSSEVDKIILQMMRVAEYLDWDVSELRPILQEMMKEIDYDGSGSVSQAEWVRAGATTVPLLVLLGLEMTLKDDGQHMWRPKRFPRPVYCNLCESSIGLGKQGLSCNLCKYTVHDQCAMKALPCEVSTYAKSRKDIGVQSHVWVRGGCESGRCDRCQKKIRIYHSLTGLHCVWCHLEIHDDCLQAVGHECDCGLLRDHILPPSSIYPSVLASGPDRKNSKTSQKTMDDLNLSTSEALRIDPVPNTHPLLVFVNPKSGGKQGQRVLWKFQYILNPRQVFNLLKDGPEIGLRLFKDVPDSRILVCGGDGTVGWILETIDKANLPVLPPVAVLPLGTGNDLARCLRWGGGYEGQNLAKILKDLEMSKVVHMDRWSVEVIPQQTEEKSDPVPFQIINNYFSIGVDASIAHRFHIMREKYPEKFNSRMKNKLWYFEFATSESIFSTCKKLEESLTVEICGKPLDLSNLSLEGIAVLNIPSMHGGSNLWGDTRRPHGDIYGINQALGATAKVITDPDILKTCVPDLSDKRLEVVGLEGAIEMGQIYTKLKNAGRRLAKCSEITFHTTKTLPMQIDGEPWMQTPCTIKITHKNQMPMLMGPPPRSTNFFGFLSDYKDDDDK

The experiment has as its target DGKα (Homo sapiens (Human), UniProt P23743). Briefly: Human DGKα kinase activity inhibition assay (ADP-Glo). Particulars: recombinant full-length human DGKα, 55 μM ATP, 7 μM 1,2-dioleoyl-sn-glycerol, read-out: IC50 values of examples in in vitro human DGKa kinase activity inhibition assays. Type of experiment: biochemical. The gist of the method: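 Recombinant full-length human DGKα (C-terminal FLAG, from insect cells) phosphorylated 1,2-dioleoyl-sn-glycerol presented in octyl-glucopyranoside micelles. ADP formed was quantified by ADP-Glo luminescence. Compounds were added from 100-fold DMSO stocks.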
In general terms: ADP-Glo first removes unused ATP, then detects ADP through luciferase.
For the compound `Cn1c(=O)c(C#N)c(N2CCC(c3nc4ccc(C5CC5)cc4o3)CC2)c2ccccc21` [Example 395, 4-[4-(6-cyclopropyl-1,3-benzoxazol-2-yl)piperidin-1-yl]-1-methyl-2-oxo-1,2-dihydroquinoline-3-carbonitrile], the pIC50 (in general, the IC50 on a negative log10 scale, so that one unit is a factor of ten) is 8.62.
For `Cc1ccc2oc(C3CCN(c4c(C(N)=O)c(=O)n(C)c5ccc(C6CCC6)cc45)CC3)nc2c1` [Example 506, 6-cyclobutyl-1-methyl-4-[4-(5-methyl-1,3-benzoxazol-2-yl)piperidin-1-yl]-2-oxo-1,2-dihydroquinoline-3-carboxamide] the value was 6.24; for `COc1ccc(-c2noc(C3CCN(c4c(C(N)=O)c(=O)n(C)c5ccccc45)CC3)n2)cc1` [Example 459, 4-{4-[3-(4-methoxyphenyl)-1,2,4-oxadiazol-5-yl]piperidin-1-yl}-1-methyl-2-oxo-1,2-dihydroquinoline-3-carboxamide], 8.01.
For `Cc1ccc2oc(C3CCN(c4c(C#N)c(=O)n(C)c5cc(OC6CCOCC6)ccc45)CC3)nc2c1` [Example 382, 1-methyl-4-[4-(5-methyl-1,3-benzoxazol-2-yl)piperidin-1-yl]-7-[(oxan-4-yl)oxy]-2-oxo-1,2-dihydroquinoline-3-carbonitrile] the value was 7.89; for `Cn1ccc2c(F)cc(C3CCN(c4c(C#N)c(=O)n(C)c5ccccc45)CC3)cc21` [Example 365, 4-[4-(4-fluoro-1-methyl-1H-indol-6-yl)piperidin-1-yl]-1-methyl-2-oxo-1,2-dihydroquinoline-3-carbonitrile], 7.85.
The value for `Cc1ccc2oc(C3(C)CCN(c4c(C#N)c(=O)n(C)c5ccc(C6CC6)cc45)CC3)nc2c1` [Example 210, 6-cyclopropyl-1-methyl-4-[4-methyl-4-(5-methyl-1,3-benzoxazol-2-yl)piperidin-1-yl]-2-oxo-1,2-dihydroquinoline-3-carbonitrile] was 6.92; that for `Cc1ccc2oc(C3CCN(c4c(C#N)c(=O)n(C)c5ccc(OCC(C)(F)F)cc45)CC3)nc2c1` [Example 406, 6-(2,2-difluoropropoxy)-1-methyl-4-[4-(5-methyl-1,3-benzoxazol-2-yl)piperidin-1-yl]-2-oxo-1,2-dihydroquinoline-3-carbonitrile] was 7.44; that for `Cc1ccc2oc(C3(C)CCN(c4c(C#N)c(=O)n(C)c5ccc(OC6CCC6)cc45)CC3)nc2c1` [Example 278, 6-(cyclobutyloxy)-1-methyl-4-[4-methyl-4-(5-methyl-1,3-benzoxazol-2-yl)piperidin-1-yl]-2-oxo-1,2-dihydroquinoline-3-carbonitrile] was 6.32.
In the case of `C=C(c1cc2c(N3CCC(c4nc5cc(C)ccc5o4)CC3)c(C#N)c(=O)n(C)c2cc1OC1CCOC1)C(F)(F)F` (racemic) [Example 433, (rac)-1-methyl-4-[4-(5-methyl-1,3-benzoxazol-2-yl)piperidin-1-yl]-2-oxo-7-[(oxolan-3-yl)oxy]-6-(3,3,3-trifluoroprop-1-en-2-yl)-1,2-dihydroquinoline-3-carbonitrile], the pIC50 was 8.07.
For `COc1ccc(C2CCN(c3c(C#N)c(=O)n(C)c4ccc(-c5ccccc5)cc34)CC2)cc1` [Example 181, 4-[4-(4-methoxyphenyl)piperidin-1-yl]-1-methyl-2-oxo-6-phenyl-1,2-dihydroquinoline-3-carbonitrile], the negative logarithm of the IC50 (pIC50) was 6.82.
Turning to `Cc1ccc2oc(C3CCN(c4c(C#N)c(=O)n(C)c5ccc(C#N)cc45)CC3)nc2c1` [Example 403, 1-methyl-4-[4-(5-methyl-1,3-benzoxazol-2-yl)piperidin-1-yl]-2-oxo-1,2-dihydroquinoline-3,6-dicarbonitrile], the pIC50 is 8.70.
The value for `Cc1ccc2oc(C3CCN(c4c(C#N)c(=O)n(C)c5ccc(C6CCC6)cc45)CC3)nc2c1` [Example 409, 6-cyclobutyl-1-methyl-4-[4-(5-methyl-1,3-benzoxazol-2-yl)piperidin-1-yl]-2-oxo-1,2-dihydroquinoline-3-carbonitrile] was 8.08; that for `Cn1c(=O)c(C#N)c(N2CCC(c3ccc(C(F)(F)F)cc3)CC2)c2ccccc21` [Example 61, 1-methyl-2-oxo-4-{4-[4-(trifluoromethyl)phenyl]piperidin-1-yl}-1,2-dihydroquinoline-3-carbonitrile] was 7.43.
For `COc1ccc(C2CCN(c3c(C#N)c(=O)n(C)c4cc(N=S(C)(C)=O)ccc34)CC2)cc1` [Example 99, 7-{[dimethyl(oxo)-λ^6-sulfanylidene]amino}-4-[4-(4-methoxyphenyl)piperidin-1-yl]-1-methyl-2-oxo-1,2-dihydroquinoline-3-carbonitrile] the value was 7.19.
The value for `Cn1c(=O)c(C#N)c(N2CCC(c3ccccc3)CC2)c2ccc(Br)cc21` [Example 90, 7-bromo-1-methyl-2-oxo-4-(4-phenylpiperidin-1-yl)-1,2-dihydroquinoline-3-carbonitrile] was 8.26.
`Cn1c(=O)c(C#N)c(N2CCC(c3nc4ccccc4s3)CC2)c2ccccc21` [Example 12, 4-[4-(1,3-benzothiazol-2-yl)piperidin-1-yl]-1-methyl-2-oxo-1,2-dihydroquinoline-3-carbonitrile]: the pIC50 is 8.46.
For `Cc1ccc2oc(C3CCN(c4c(C(N)=O)c(=O)n(C)c5cc(F)ccc45)CC3)nc2c1` [Example 304, 7-fluoro-1-methyl-4-[4-(5-methyl-1,3-benzoxazol-2-yl)piperidin-1-yl]-2-oxo-1,2-dihydroquinoline-3-carboxamide] the value was 8.68; for `Cc1ccc2oc(C3CCN(c4c(C#N)c(=O)n(C)c5ccc(OCC(F)F)cc45)CC3)nc2c1` [Example 407, 6-(2,2-difluoroethoxy)-1-methyl-4-[4-(5-methyl-1,3-benzoxazol-2-yl)piperidin-1-yl]-2-oxo-1,2-dihydroquinoline-3-carbonitrile], 7.32; for `Cn1c(=O)c(C#N)c(N2CCC(c3nc4ccc(Cl)cc4o3)CC2)c2ccc(Br)cc21` [Example 32, 7-bromo-4-[4-(6-chloro-1,3-benzoxazol-2-yl)piperidin-1-yl]-1-methyl-2-oxo-1,2-dihydroquinoline-3-carbonitrile], 8.22.
For `Cc1ccc2oc([C@H]3CCN(c4c(C#N)c(=O)n(C)c5ccccc45)[C@@H](C)C3)nc2c1` [Example 326, 1-methyl-4-[(2S,4S)-2-methyl-4-(5-methyl-1,3-benzoxazol-2-yl)-1-piperidyl]-2-oxo-quinoline-3-carbonitrile] the value was 7.47; for `Cc1ccc2oc(C3(C)CCN(c4c(C#N)c(=O)n(C)c5c(C)cccc45)CC3)nc2c1` [Example 263, 1,8-dimethyl-4-[4-methyl-4-(5-methyl-1,3-benzoxazol-2-yl)piperidin-1-yl]-2-oxo-1,2-dihydroquinoline-3-carbonitrile], 7.38.
The value for `Cn1c(=O)c(C(N)=O)c(N2CCC(c3nc4cc(N5CCCC5=O)ccc4o3)CC2)c2ccccc21` [Example 450, 1-methyl-2-oxo-4-{4-[5-(2-oxopyrrolidin-1-yl)-1,3-benzoxazol-2-yl]piperidin-1-yl}-1,2-dihydroquinoline-3-carboxamide] was 6.92.
On to `Cc1ccc2oc(C3CCN(c4c(C#N)c(=O)n(C)c5ccc(C(N)=O)cc45)CC3)nc2c1` [Example 404, 3-cyano-1-methyl-4-[4-(5-methyl-1,3-benzoxazol-2-yl)piperidin-1-yl]-2-oxo-1,2-dihydroquinoline-6-carboxamide], for which the pIC50 is 8.28.
For `Cn1c(=O)c(C#N)c(N2CCC(c3ccccc3F)CC2)c2ccccc21` [Example 60, 4-[4-(2-fluorophenyl)piperidin-1-yl]-1-methyl-2-oxo-1,2-dihydroquinoline-3-carbonitrile] the value was 7.48; for `CNC(=O)c1c(N2CCC(C)(c3nc4ccccc4o3)CC2)c2ccccc2n(C)c1=O` [Example 449, 4-[4-(1,3-benzoxazol-2-yl)-4-methylpiperidin-1-yl]-N,1-dimethyl-2-oxo-1,2-dihydroquinoline-3-carboxamide], 7.89; for `Cn1c(=O)c(C#N)c(N2CCC(c3ccc(Br)cc3)CC2)c2ccccc21` [Example 88, 4-[4-(4-bromophenyl)piperidin-1-yl]-1-methyl-2-oxo-1,2-dihydroquinoline-3-carbonitrile], 7.33.
For `Cc1ccccc1-c1nnc(C2CCN(c3c(C#N)c(=O)n(C)c4cc(O)c(Br)cc34)CC2)o1` [Example 445, 6-bromo-7-hydroxy-1-methyl-4-{4-[5-(2-methylphenyl)-1,3,4-oxadiazol-2-yl]piperidin-1-yl}-2-oxo-1,2-dihydroquinoline-3-carbonitrile] the value was 7.36; for `Cc1ccccc1-c1noc(C2CCN(c3c(C#N)c(=O)n(C)c4ccccc34)CC2)n1` [Example 348, 1-methyl-4-{4-[3-(2-methylphenyl)-1,2,4-oxadiazol-5-yl]piperidin-1-yl}-2-oxo-1,2-dihydroquinoline-3-carbonitrile], 8.10.
The value for `Cc1ccc(-c2nnc(C3CCN(c4c(C#N)c(=O)n(C)c5ccccc45)CC3)o2)cc1` [Example 352, 1-methyl-4-{4-[5-(4-methylphenyl)-1,3,4-oxadiazol-2-yl]piperidin-1-yl}-2-oxo-1,2-dihydroquinoline-3-carbonitrile] was 6.95; that for `Cc1ccc2oc(C3CCN(c4c(C#N)c(=O)n(C)c5c(Br)cccc45)CC3)nc2c1` [Example 397, 8-bromo-1-methyl-4-[4-(5-methyl-1,3-benzoxazol-2-yl)piperidin-1-yl]-2-oxo-1,2-dihydroquinoline-3-carbonitrile] was 6.40.
In the case of `CN1C(=O)C(C)(C)c2cc(C3CCN(c4c(C#N)c(=O)n(C)c5ccccc45)CC3)ccc21` [Example 358, 1-methyl-2-oxo-4-[4-(1,3,3-trimethyl-2-oxo-2,3-dihydro-1H-indol-5-yl)piperidin-1-yl]-1,2-dihydroquinoline-3-carbonitrile], the pIC50 was 7.36.
